Test results taken from publication doi:10.1101/2022.11.06.515312v1 (biorxiv, 2022).

T1: OsLAT1 (Oryza sativa, UniProt Q6Z8D0)
T1 sequence (Q6Z8D0 1-531): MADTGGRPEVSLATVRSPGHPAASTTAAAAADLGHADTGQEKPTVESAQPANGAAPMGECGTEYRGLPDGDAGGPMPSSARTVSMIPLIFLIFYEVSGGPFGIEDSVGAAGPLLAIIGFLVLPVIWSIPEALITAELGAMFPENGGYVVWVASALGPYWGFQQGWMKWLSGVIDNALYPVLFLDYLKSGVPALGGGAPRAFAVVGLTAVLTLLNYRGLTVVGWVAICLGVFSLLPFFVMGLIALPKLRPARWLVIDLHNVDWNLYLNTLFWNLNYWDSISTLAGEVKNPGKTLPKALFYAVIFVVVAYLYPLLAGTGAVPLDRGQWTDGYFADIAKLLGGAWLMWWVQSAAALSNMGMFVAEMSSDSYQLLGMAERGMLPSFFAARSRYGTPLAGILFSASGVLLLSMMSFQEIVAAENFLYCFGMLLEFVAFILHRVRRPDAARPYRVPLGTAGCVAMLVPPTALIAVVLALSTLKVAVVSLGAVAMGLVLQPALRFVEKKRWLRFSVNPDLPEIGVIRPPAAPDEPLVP


Columns and labels:
Conditions in all cases: 5-50 uM substrate, 1 h, 0.333 mM MES pH 5.7, 2% galactose
[1] = biological target: T1, OsLAT1; test: uptake into yeast, UPLC-MS/MS, vector control subtracted
[2] = test system: OsLAT5; test: as above; type: cell-based, Oryza sativa subsp. japonica
[3] = substrate: c1cc[n+]2c(c1)-c1cccc[n+]1CC2; test: cells, lysate or membranes

| Molecule | Km [1] | Km [2] | Km [3] |
| --- | --- | --- | --- |
| C[n+]1ccc(-c2cc[n+](C)cc2)cc1 [paraquat] | 40.8 ± 9.61 µM | 11.7 ± 4.04 µM | – |
| c1cc[n+]2c(c1)-c1cccc[n+]1CC2 [diquat, 1,10-ethylene-2,20-bipyridinium dibromide] | – | 13.8 ± 3.24 µM | – |
| OsLAT1 (Oryza sativa Japonica Group) (protein) MADTGGRPEVSLATVRSPGHPAASTTAAAAADLGHADTGQEKPTVESAQPANGAAPMGECGTEYRGLPDGDAGGPMPSSARTVSMIPLIFLIFYEVSGGPFGIEDSVGAAGPLLAIIGFLVLPVIWSIPEALITAELGAMFPENGGYVVWVASALGPYWGFQQGWMKWLSGVIDNALYPVLFLDYLKSGVPALGGGAPRAFAVVGLTAVLTLLNYRGLTVVGWVAICLGVFSLLPFFVMGLIALPKLRPARWLVIDLHNVDWNLYLNTLFWNLNYWDSISTLAGEVKNPGKTLPKALFYAVIFVVVAYLYPLLAGTGAVPLDRGQWTDGYFADIAKLLGGAWLMWWVQSAAALSNMGMFVAEMSSDSYQLLGMAERGMLPSFFAARSRYGTPLAGILFSASGVLLLSMMSFQEIVAAENFLYCFGMLLEFVAFILHRVRRPDAARPYRVPLGTAGCVAMLVPPTALIAVVLALSTLKVAVVSLGAVAMGLVLQPALRFVEKKRWLRFSVNPDLPEIGVIRPPAAPDEPLVP | – | – | 23.98 ± 6.77 µM |
